Laboratory results published in patent publication US10941138B2, “Quinoline and isoquinoline derivatives for treating pain and pain related conditions” (ESTEVE PHARMACEUTICALS, S.A., priority 2016, dated 2021).
Read-outs that look alike come from different tables or passages of the source.

Legend:
[1] = target: human α2δ-1 subunit of Cav2.2 calcium channel (Homo sapiens (Human), UniProt P54289); test: Binding assay to human α2δ-1 subunit of Cav2.2 calcium channel ([3H]-Gabapentin); details: read-out: Ki (nM) alpha2delta Hum
Sequence of human α2δ-1 subunit of Cav2.2 calcium channel (P54289 25-1103): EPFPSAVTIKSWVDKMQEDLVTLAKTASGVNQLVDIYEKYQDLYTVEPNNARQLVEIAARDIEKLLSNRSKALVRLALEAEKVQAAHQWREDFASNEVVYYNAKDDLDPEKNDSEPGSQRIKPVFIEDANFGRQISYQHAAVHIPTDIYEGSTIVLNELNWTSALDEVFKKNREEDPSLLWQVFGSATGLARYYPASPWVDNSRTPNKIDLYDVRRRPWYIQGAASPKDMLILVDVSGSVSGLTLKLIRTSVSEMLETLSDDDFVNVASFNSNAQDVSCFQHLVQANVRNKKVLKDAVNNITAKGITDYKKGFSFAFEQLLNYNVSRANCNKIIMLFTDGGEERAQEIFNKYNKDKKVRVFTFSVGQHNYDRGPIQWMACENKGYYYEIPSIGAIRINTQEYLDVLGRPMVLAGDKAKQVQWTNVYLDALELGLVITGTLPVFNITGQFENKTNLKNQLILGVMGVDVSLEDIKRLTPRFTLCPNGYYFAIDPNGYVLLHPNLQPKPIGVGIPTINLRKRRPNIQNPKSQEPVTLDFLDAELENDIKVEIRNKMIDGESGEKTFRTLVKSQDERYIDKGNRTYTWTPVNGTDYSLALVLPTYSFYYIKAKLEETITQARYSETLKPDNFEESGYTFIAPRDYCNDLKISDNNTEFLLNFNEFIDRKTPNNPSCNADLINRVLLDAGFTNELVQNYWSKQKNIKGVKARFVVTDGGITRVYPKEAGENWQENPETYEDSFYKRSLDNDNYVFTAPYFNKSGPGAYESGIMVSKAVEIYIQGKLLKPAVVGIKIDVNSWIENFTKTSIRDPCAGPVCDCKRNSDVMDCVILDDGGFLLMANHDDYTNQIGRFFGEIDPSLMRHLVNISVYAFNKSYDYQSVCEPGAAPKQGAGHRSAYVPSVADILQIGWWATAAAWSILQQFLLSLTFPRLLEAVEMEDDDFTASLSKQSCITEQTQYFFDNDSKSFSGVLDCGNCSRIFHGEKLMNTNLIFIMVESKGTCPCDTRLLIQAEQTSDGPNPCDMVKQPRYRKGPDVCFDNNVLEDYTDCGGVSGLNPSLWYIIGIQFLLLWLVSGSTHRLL
Experimental: Binding Assay to Human α2δ-1 Subunit of Cav2.2 Calcium Channel.
Human α2δ-1 enriched membranes (2.5 μg) were incubated with 15 nM of radiolabeled [3H]-Gabapentin in assay buffer containing Hepes-KOH 10 mM, pH 7.4.
NSB (non specific binding) was measured by adding 10 μM pregabalin. The binding of the test compound was measured at five different concentrations. After 60 min incubation at 27° C., binding reaction was terminated by filtering through Multiscreen GF/C (Millipore) presoaked in 0.5% polyethyleneimine in Vacuum Manifold Station, followed by 3 washes with ice-cold filtration buffer containing 50 mM Tris-HCl, pH 7.4. Filter plates were dried at 60° C. for 1 h and 30 μl of scintillation cocktail were added to each well before radioactivity reading.
(§1) Readings were performed in a Trilux 1450 Microbeta radioactive counter (Perkin Elmer).

[2] = target: human norepinephrine transporter (NET) (Homo sapiens (Human), UniProt P23975); test: Binding assay to human norepinephrine transporter (NET) ([3H]-Nisoxetin); details: Table 2, dual compounds, human NET enriched membranes, read-out: Ki (nM) NET Hum
Sequence of human norepinephrine transporter (NET) (P23975 whole entry): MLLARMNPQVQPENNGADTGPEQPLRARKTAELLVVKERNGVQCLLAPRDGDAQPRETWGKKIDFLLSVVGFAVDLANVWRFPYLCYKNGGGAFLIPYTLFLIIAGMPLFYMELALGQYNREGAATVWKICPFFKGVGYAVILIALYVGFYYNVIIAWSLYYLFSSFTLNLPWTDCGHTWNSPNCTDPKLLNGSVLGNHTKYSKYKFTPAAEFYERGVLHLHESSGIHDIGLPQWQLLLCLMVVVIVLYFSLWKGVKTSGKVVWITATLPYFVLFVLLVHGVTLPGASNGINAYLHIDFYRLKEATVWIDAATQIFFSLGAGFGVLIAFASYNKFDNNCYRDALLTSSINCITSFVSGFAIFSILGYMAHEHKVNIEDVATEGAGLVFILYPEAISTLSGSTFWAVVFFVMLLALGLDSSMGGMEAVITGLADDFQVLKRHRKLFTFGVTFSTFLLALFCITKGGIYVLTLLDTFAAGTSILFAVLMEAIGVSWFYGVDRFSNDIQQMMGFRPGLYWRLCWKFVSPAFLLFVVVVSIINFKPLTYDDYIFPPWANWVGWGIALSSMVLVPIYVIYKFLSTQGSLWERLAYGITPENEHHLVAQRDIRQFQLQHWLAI
Experimental: Binding Assay to Human Norepinephrine Transporter (NET).
Human norepinephrine transporter (NET) enriched membranes (5 μg) were incubated with 5 nM of radiolabeled [3H]-Nisoxetin in assay buffer containing 50 mM Tris-HCl, 120 mM NaCl, 5 mM KCl, pH 7.4.
NSB (non specific binding) was measured by adding desipramine 10 μM. The binding of the test compound was measured at five different concentrations. After 60 min incubation at 4° C., binding reaction was terminated by filtering through Multiscreen GF/C (Millipore) presoaked in 0.5% polyethyleneimine in Vacuum Manifold Station, followed by 3 washes with ice-cold filtration buffer containing 50 mM Tris-HCl, 0.9% NaCl, pH 7.4.
Filter plates were dried at 60° C. for 1 h and 30 μl of scintillation cocktail were added to each well before radioactivity reading.
as §1

[3] = Table 1, human α2δ-1 enriched membranes
[4] = Table 2, dual compounds, human α2δ-1 enriched membranes

Row | SMILES | Ki [1, 3] [nM] | Ki [1, 4] [nM] | Ki [2] [nM]
1 | CNCCC(Oc1cccc2cccnc12)c1cccs1 (stereo not drawn) [Example 1, N-Methyl-3-(quinolin-8-yloxy)-3-(thiophen-2-yl)propan-1-amine] | ≥ 3000 | ≥ 3000 | < 100
2 | CNCC[C@H](Oc1cccc2ccncc12)c1cccs1 [Example 10, (S)-3-(isoquinolin-8-yloxy)-N-methyl-3-(thiophen-2-yl)propan-1-amine] | ≥ 3000 | ≥ 3000 | 500 to 1000
3 | CNCC[C@H](Oc1cccc2cnccc12)c1cccs1 [Example 11, (S)-3-(isoquinolin-5-yloxy)-N-methyl-3-(thiophen-2-yl)propan-1-amine] | ≥ 3000 | ≥ 3000 | < 100
4 | CNCCC(Oc1cccc2cnccc12)c1cccnc1 (stereo not drawn) [Example 17, 3-(isoquinolin-5-yloxy)-N-methyl-3-(pyridin-3-yl)propan-1-amine] | ≥ 3000 | ≥ 3000 | 100 to 500
5 | CNCCC(Oc1cccc2cnccc12)C1CCOCC1 (stereo not drawn) [Example 18, 3-(isoquinolin-5-yloxy)-N-methyl-3-(tetrahydro-2H-pyran-4-yl)propan-1-amine] | ≥ 3000 | ≥ 3000 | 100 to 500
6 | CNCCC(Oc1cccc2cnccc12)c1ccncc1 (stereo not drawn) [Example 25, 3-(isoquinolin-5-yloxy)-N-methyl-3-(pyridin-4-yl)propan-1-amine] | ≥ 3000 | ≥ 3000 | 100 to 500
7 | CNCCC(Oc1cccc2ccncc12)c1cc(C(F)(F)F)ccn1 (stereo not drawn) [Example 30, 3-(isoquinolin-8-yloxy)-N-methyl-3-(4-(trifluoromethyl)pyridin-2-yl)propan-1-amine] | ≥ 3000 | ≥ 3000 | 500 to 1000
8 | NCCC(Oc1cccc2cnccc12)c1cccs1 (stereo not drawn) [Example 44, 3-(isoquinolin-5-yloxy)-3-(thiophen-2-yl)propan-1-amine] | ≥ 3000 | ≥ 3000 | 100 to 500
9 | CNCCC(Oc1cccc2ncccc12)c1sccc1F (stereo not drawn) [Example 48, 3-(3-fluorothiophen-2-yl)-N-methyl-3-(quinolin-5-yloxy)propan-1-amine] | 100 to 500 | 100 to 500 | 100 to 500
10 | CNCCC(Oc1cccc2ccncc12)c1ccc(F)s1 (stereo not drawn) [Example 49, 3-(5-fluorothiophen-2-yl)-3-(isoquinolin-8-yloxy)-N-methylpropan-1-amine] | 100 to 500 | 100 to 500 | 100 to 500
11 | CNCC[C@H](Oc1cccc2cnccc12)c1ccc(F)s1 [Example 50, (S)-3-(5-fluorothiophen-2-yl)-3-(isoquinolin-5-yloxy)-N-methylpropan-1-amine] | 500 to 3000 | 500 to 3000 | < 100
12 | CNCC[C@H](Oc1cccc2ncccc12)c1ccc(F)s1 [Example 51, (S)-3-(5-fluorothiophen-2-yl)-N-methyl-3-(quinolin-5-yloxy)propan-1-amine] | 100 to 500 | 100 to 500 | 100 to 500
13 | CNCCC(Oc1ccc2cnccc2c1)c1cccs1 (stereo not drawn) [Example 54, 3-(isoquinolin-6-yloxy)-N-methyl-3-(thiophen-2-yl)propan-1-amine] | 500 to 3000 | 500 to 3000 | 100 to 500
14 | CNCCC(Oc1cccc2cnccc12)c1ccsc1 (stereo not drawn) [Example 56, 3-(isoquinolin-5-yloxy)-N-methyl-3-(thiophen-3-yl)propan-1-amine] | 100 to 500 | 100 to 500 | < 100
15 | CNCCC(Oc1cccc2ccncc12)c1ccsc1 (stereo not drawn) [Example 58, 3-(isoquinolin-8-yloxy)-N-methyl-3-(thiophen-3-yl)propan-1-amine] | 100 to 500 | 100 to 500 | 500 to 1000
16 | CNCC[C@@H](Oc1cccc2cnccc12)c1ccsc1 [Example 60, (R)-3-(isoquinolin-5-yloxy)-N-methyl-3-(thiophen-3-yl)propan-1-amine] | 100 to 500 | 100 to 500 | 100 to 500
17 | CNCC[C@@H](Oc1cccc2ccncc12)c1ccsc1 [Example 61, (R)-3-(isoquinolin-8-yloxy)-N-methyl-3-(thiophen-3-yl)propan-1-amine] | 100 to 500 | 100 to 500 | 100 to 500
18 | CNCC[C@H](Oc1cccc2c(C)nccc12)c1cccs1 [Example 65, (S)-N-methyl-3-((1-methylisoquinolin-5-yl)oxy)-3-(thiophen-2-yl)propan-1-amine] | ≥ 3000 | ≥ 3000 | 100 to 500
19 | CNCC[C@H](Oc1cccc2ncccc12)c1ccsc1 [Example 67, (S)-N-methyl-3-(quinolin-5-yloxy)-3-(thiophen-3-yl)propan-1-amine] | 100 to 500 | 100 to 500 | 100 to 500
20 | CNCC[C@H](Oc1cccc2cnccc12)c1ccsc1 [Example 68, (S)-3-(isoquinolin-5-yloxy)-N-methyl-3-(thiophen-3-yl)propan-1-amine] | ≥ 3000 | ≥ 3000 | < 100
21 | CNCC[C@H](Oc1cccc2ccncc12)c1ccsc1 [Example 69, (S)-3-(isoquinolin-8-yloxy)-N-methyl-3-(thiophen-3-yl)propan-1-amine] | ≥ 3000 | ≥ 3000 | 500 to 1000

Now from value to molecule:

Row | Ki [1, 3] [nM] | Ki [1, 4] [nM] | Ki [2] [nM] | SMILES
22 | 100 to 500 | 100 to 500 | 100 to 500 | CNCC[C@H](Oc1cccc2ccncc12)c1cccs1 (stereo in doubt) [Example 12, 3-(isoquinolin-8-yloxy)-N-methyl-3-(thiophen-2-yl)propan-1-amine]
23 | 100 to 500 | 100 to 500 | 100 to 500 | CNCCC(Oc1cccc2ncccc12)c1cccs1 (stereo not drawn) [Example 2, N-methyl-3-(quinolin-5-yloxy)-3-(thiophen-2-yl)propan-1-amine]
24 | 100 to 500 | 100 to 500 | < 100 | CNCCC(Oc1cccc2cnccc12)c1cccs1 (stereo not drawn) [Example 3, 3-(isoquinolin-5-yloxy)-N-methyl-3-(thiophen-2-yl)propan-1-amine]
25 | < 100 | < 100 | 500 to 1000 | CNCC[C@H](Oc1cccc2ncccc12)c1cccs1 [Example 9, (S)-N-methyl-3-(quinolin-5-yloxy)-3-(thiophen-2-yl)propan-1-amine]
26 | 100 to 500 | 100 to 500 | 100 to 500 | CNCC[C@@H](Oc1cccc2ccncc12)c1cccs1 [Example 13, (R)-3-(isoquinolin-8-yloxy)-N-methyl-3-(thiophen-2-yl)propan-1-amine]
27 | 100 to 500 | 100 to 500 | 100 to 500 | CNCC[C@@H](Oc1cccc2cnccc12)c1cccs1 [Example 14, (R)-3-(isoquinolin-5-yloxy)-N-methyl-3-(thiophen-2-yl)propan-1-amine]
28 | 100 to 500 | 100 to 500 | 100 to 500 | CNCC[C@@H](Oc1cccc2ncccc12)c1cccs1 [Example 15, (R)-N-methyl-3-(quinolin-5-yloxy)-3-(thiophen-2-yl)propan-1-amine]
29 | 100 to 500 | 100 to 500 | 100 to 500 | CNCCC(Oc1cccc2ncccc12)c1ccc(Cl)s1 (stereo not drawn) [Example 41, 3-(5-chlorothiophen-2-yl)-N-methyl-3-(quinolin-5-yloxy)propan-1-amine]
30 | < 100 | < 100 | 100 to 500 | CNCCC(Oc1cccc2ncccc12)c1ccc(F)s1 (stereo not drawn) [Example 42, 3-(5-fluorothiophen-2-yl)-N-methyl-3-(quinolin-5-yloxy)propan-1-amine]
31 | < 100 | < 100 | 100 to 500 | CNCCC(Oc1cccc2cnccc12)c1ccc(F)s1 (stereo not drawn) [Example 45, 3-(5-fluorothiophen-2-yl)-3-(isoquinolin-5-yloxy)-N-methylpropan-1-amine]
32 | 100 to 500 | 100 to 500 | < 100 | CNCCC(Oc1cccc2cnccc12)c1sccc1F (stereo not drawn) [Example 46, 3-(3-fluorothiophen-2-yl)-3-(isoquinolin-5-yloxy)-N-methylpropan-1-amine]
33 | 100 to 500 | 100 to 500 | 100 to 500 | CNCCC(Oc1cccc2ccncc12)c1sccc1F (stereo not drawn) [Example 47, 3-(3-fluorothiophen-2-yl)-3-(isoquinolin-8-yloxy)-N-methylpropan-1-amine]
34 | < 100 | < 100 | 100 to 500 | CNCC[C@@H](Oc1cccc2cnccc12)c1ccc(F)s1 [Example 52, (R)-3-(5-fluorothiophen-2-yl)-3-(isoquinolin-5-yloxy)-N-methylpropan-1-amine]
35 | < 100 | < 100 | 100 to 500 | CNCC[C@@H](Oc1cccc2ncccc12)c1ccc(F)s1 [Example 53, (R)-3-(5-fluorothiophen-2-yl)-N-methyl-3-(quinolin-5-yloxy)propan-1-amine]
36 | < 100 | < 100 | 500 to 1000 | CNCC[C@@H](Oc1cccc2ccnc(C)c12)c1cccs1 [Example 62, (R)-N-methyl-3-((1-methylisoquinolin-8-yl)oxy)-3-(thiophen-2-yl)propan-1-amine]
